Source: patent US10065941B2, “Aminotriazine derivative and pharmaceutical composition comprising the same” (Shionogi & Co., Ltd., priority 2013, dated 2018)

Target: human P2X3 receptor (Homo sapiens (Human), UniProt P56373)
Test: Evaluation of human P2X3 receptor inhibitory activity (Test Example 1)
Format: cell-based
Settings: C6BU-1 cell transfected with human P2X3 receptor gene, FLIPR 384
Procedure: Stably expressing cell line (C6BU-1 cell transfected with human P2X3 receptor gene (GenBank accession number Y07683) was used. The cells were seeded in a 384-well PDL-coated microtiter plate at a concentration of 3000 cells/well and cultured in the medium (8.3% fetal bovine serum, 8.3% horse serum, and 1% antibiotic and antifungal in DMEM) for one day at 37° C. under 5% carbon dioxide atmosphere. The medium was replaced with 4 μM Fluo-3-AM solution (20 mM HEPES, 137 mM NaCl, 2.7 mM KCl, 0.9 mM MgCl2, 5.0 mM CaCl2, 5.6 mM D-glucose, 2.5 mM probenecid, 0.5% BSA, and 0.04% Pluronic F-127, pH 7.5) and incubated at 37° C. under 5% dioxide carbon atmosphere for one hour. The plate was washed with washing buffer (20 mM HEPES, 137 mM NaCl, 2.7 mM KCl, 0.9 mM MgCl2, 5.0 mM CaCl2, 5.6 mM D-glucose, 2.5 mM probenecid, pH7.5), and each well was added with 20 μL of the washing buffer. The plate was placed in High-Throughput Screening System FLIPR 384 (Molecular Device Co.). Measurement of fluorescence intensity by FLIPR 384 was started, and 20 μL of DMSO solutions containing different concentrations of the test compound as prepared by dilution with dilution buffer (20 mM HEPES, 137 mM NaCl, 2.7 mM KCl, 0.9 mM MgCl2, 5.0 mM CaCl2, 5.6 mM D-glucose, 2.5 mM probenecid, 0.1% Pluronic F-127, pH7.5) were dispensed to each well through the built-in automatic dispenser. Five minutes after, 150 nM ATP solution (25 μL) prepared by dilution with the dilution buffer was dispensed through the built-in automatic dispenser, and the measurement of fluorescence intensity was continued for 4 min. For each well, the specific maximum fluorescence intensity was calculated as the ratio of the maximum fluorescence intensity after addition of the ATP solution to the fluorescence intensity at the starting of the measurement. […] The specific maximum fluorescence intensity and IC50 were calculated using Spotfire (Science & Technology Systems, Inc.)

Chain of human P2X3 receptor (P56373 whole entry): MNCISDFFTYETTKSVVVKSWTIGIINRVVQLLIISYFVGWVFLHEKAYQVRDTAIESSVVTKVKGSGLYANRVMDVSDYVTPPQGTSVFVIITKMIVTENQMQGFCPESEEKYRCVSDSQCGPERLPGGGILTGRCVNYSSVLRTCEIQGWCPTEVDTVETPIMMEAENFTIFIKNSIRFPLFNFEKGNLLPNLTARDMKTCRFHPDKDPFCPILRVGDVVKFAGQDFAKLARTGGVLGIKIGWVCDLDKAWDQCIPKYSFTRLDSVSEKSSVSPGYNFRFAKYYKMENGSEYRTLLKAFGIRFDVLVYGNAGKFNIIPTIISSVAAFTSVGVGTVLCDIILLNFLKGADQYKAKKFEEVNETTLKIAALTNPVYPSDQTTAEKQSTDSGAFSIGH

SMILES	IC50 [nM]
C[C@@H](Cn1c(=O)[nH]/c(=N\c2ccc(Oc3cc(Cl)ccn3)cc2)n(Cc2ccc(Cl)cc2)c1=O)C(=O)O [Compound I-065]	8
CCOC(=O)C1(Cn2c(=O)[nH]/c(=N\c3ccc(Oc4ncccc4F)cc3)n(Cc3ccc(Cl)cc3)c2=O)CC1 [Compound I-066]	15
O=C(O)C1(Cn2c(=O)[nH]/c(=N\c3ccc(Oc4ncccc4F)cc3)n(Cc3ccc(Cl)cc3)c2=O)CC1 [Compound I-067]	11
COC(=O)[C@@H](C)Cn1c(=O)[nH]/c(=N\c2ccc(Oc3cc(F)ccn3)cc2)n(Cc2ccc(Cl)cc2)c1=O [Compound I-068]	5
COc1ccnc(Oc2ccc(/N=c3\[nH]c(=O)n(C[C@H](C)C(=O)O)c(=O)n3Cc3ccc(Cl)cc3)cc2)c1 [Compound I-069]	7
COC(=O)[C@H](C)[C@H](C)n1c(=O)[nH]/c(=N\c2ccc(Oc3ccc(OC(F)F)cn3)cc2)n(Cc2ccc(Cl)cc2)c1=O [Compound I-071]	38
C[C@@H](C(=O)O)[C@H](C)n1c(=O)[nH]/c(=N\c2ccc(Oc3ccc(OC(F)F)cn3)cc2)n(Cc2ccc(Cl)cc2)c1=O [Compound I-072]	6
COC(=O)[C@H](C)[C@H](C)n1c(=O)[nH]/c(=N\c2ccc(Oc3ccc(C)cn3)cc2)n(Cc2ccc(Cl)cc2)c1=O [Compound I-073]	15
Cc1ccc(Oc2ccc(/N=c3\[nH]c(=O)n([C@@H](C)[C@@H](C)C(=O)O)c(=O)n3Cc3ccc(Cl)cc3)cc2)nc1 [Compound I-074]	5
COC(=O)[C@H](C)[C@H](C)n1c(=O)[nH]/c(=N\c2ccc(Oc3cc(C#N)ccn3)cc2)n(Cc2ccc(Cl)cc2)c1=O [Compound I-075]	21
COC(=O)[C@@H](C)Cn1c(=O)[nH]/c(=N\c2ccc(Oc3cc(C)ccn3)cc2)n(Cc2ccc(Cl)cc2)c1=O [Compound I-076]	22
Cc1cccnc1Oc1ccc(/N=c2\[nH]c(=O)n(C[C@H](C)C(=O)O)c(=O)n2Cc2ccc(Cl)cc2)cc1 [Compound I-077]	10
Cc1cccnc1Oc1ccc(/N=c2\[nH]c(=O)n(CC(C)(C)C(=O)O)c(=O)n2Cc2ccc(Cl)cc2)cc1 [Compound I-078]	19
COc1ccc(Oc2ccc(/N=c3\[nH]c(=O)n(C[C@H](C)C(=O)O)c(=O)n3Cc3ccc(Cl)cc3)cc2)nc1 [Compound I-079]	5
Cc1ccnc(Oc2ccc(/N=c3\[nH]c(=O)n(C[C@H](C)C(=O)O)c(=O)n3Cc3ccc(Cl)cc3)cc2)c1 [Compound I-080]	10
COC(=O)C(C)(C)Cn1c(=O)[nH]/c(=N\c2ccc(Oc3cc(Cl)ccn3)cc2)n(Cc2ccc(Cl)cc2)c1=O [Compound I-081]	38
COC(=O)[C@@H](C)Cn1c(=O)[nH]/c(=N\c2ccc(Oc3cc(C(F)(F)F)ccn3)cc2)n(Cc2ccc(Cl)cc2)c1=O [Compound I-082]	112
COC(=O)[C@@H](C)Cn1c(=O)[nH]/c(=N\c2ccc(Oc3ccc(CO)cn3)cc2)n(Cc2ccc(Cl)cc2)c1=O [Compound I-083]	6
C[C@@H](Cn1c(=O)[nH]/c(=N\c2ccc(Oc3ccc(CO)cn3)cc2)n(Cc2ccc(Cl)cc2)c1=O)C(=O)O [Compound I-084]	8
COC(=O)C(C)(C)Cn1c(=O)[nH]/c(=N\c2ccc(Oc3cc(C(F)(F)F)ccn3)cc2)n(Cc2ccc(Cl)cc2)c1=O [Compound I-085]	225
CC(C)(Cn1c(=O)[nH]/c(=N\c2ccc(Oc3cc(Cl)ccn3)cc2)n(Cc2ccc(Cl)cc2)c1=O)C(=O)O [Compound I-086]	33
COC(=O)[C@H](C)[C@H](C)n1c(=O)[nH]/c(=N\c2ccc(Oc3cc(Cl)ccn3)cc2)n(Cc2ccc(Cl)cc2)c1=O [Compound I-087]	107
C[C@@H](Cn1c(=O)[nH]/c(=N\c2ccc(Oc3cc(C(F)(F)F)ccn3)cc2)n(Cc2ccc(Cl)cc2)c1=O)C(=O)O [Compound I-088]	15
CCOC(=O)C[C@H](O)Cn1c(=O)[nH]/c(=N\c2ccc(Oc3ccc(F)cn3)cc2)n(Cc2ccc(Cl)cc2)c1=O [Compound I-089]	8
O=C(O)C[C@H](O)Cn1c(=O)[nH]/c(=N\c2ccc(Oc3ccc(F)cn3)cc2)n(Cc2ccc(Cl)cc2)c1=O [Compound I-090]	72
C[C@@H](C(=O)O)[C@H](C)n1c(=O)[nH]/c(=N\c2ccc(Oc3cc(Cl)ccn3)cc2)n(Cc2ccc(Cl)cc2)c1=O [Compound I-091]	10

SMILES	IC50 [nM]
CC(C)(Cn1c(=O)[nH]/c(=N\c2ccc(Oc3cc(C(F)(F)F)ccn3)cc2)n(Cc2ccc(Cl)cc2)c1=O)C(=O)O [Compound I-092]	68
COc1ccc(Oc2ccc(/N=c3\[nH]c(=O)n(CC(C)(C)C(=O)O)c(=O)n3Cc3ccc(Cl)cc3)cc2)nc1 [Compound I-093]	16
COc1ccc(Oc2ccc(/N=c3\[nH]c(=O)n([C@@H](C)[C@@H](C)C(=O)O)c(=O)n3Cc3ccc(Cl)cc3)cc2)nc1 [Compound I-094]	11
COC(=O)[C@H](C)[C@H](C)n1c(=O)[nH]/c(=N\c2ccc(Oc3ncccc3F)cc2)n(Cc2ccc(C)cc2)c1=O [Compound I-095]	9
Cc1ccc(Cn2c(=O)n([C@@H](C)[C@@H](C)C(=O)O)c(=O)[nH]/c2=N\c2ccc(Oc3ncccc3F)cc2)cc1 [Compound I-096]	8
COC(=O)[C@@H](C)Cn1c(=O)[nH]/c(=N\c2ccc(Oc3ccc(Cl)cn3)cc2)n(Cc2ccc(C)cc2)c1=O [Compound I-097]	5
COC(=O)C(C)(C)Cn1c(=O)[nH]/c(=N\c2ccc(Oc3ccc(Cl)cn3)cc2)n(Cc2ccc(C)cc2)c1=O [Compound I-098]	7
COC(=O)[C@H](Cn1c(=O)[nH]/c(=N\c2ccc(Oc3ncccc3F)cc2)n(Cc2ccc(Cl)cc2)c1=O)OC [Compound I-099]	6
Cc1ccc(Cn2c(=O)n(C[C@H](C)C(=O)O)c(=O)[nH]/c2=N\c2ccc(Oc3ccc(Cl)cn3)cc2)cc1 [Compound I-100]	4
Cc1ccc(Cn2c(=O)n(CC(C)(C)C(=O)O)c(=O)[nH]/c2=N\c2ccc(Oc3ccc(Cl)cn3)cc2)cc1 [Compound I-101]	5
CO[C@@H](Cn1c(=O)[nH]/c(=N\c2ccc(Oc3ncccc3F)cc2)n(Cc2ccc(Cl)cc2)c1=O)C(=O)O [Compound I-102]	5
COC(=O)[C@H](C)[C@H](C)n1c(=O)[nH]/c(=N\c2ccc(Oc3ccc(F)cn3)cc2)n(Cc2ccc(C)cc2)c1=O [Compound I-103]	7
COC(=O)[C@H](C)[C@H](C)n1c(=O)[nH]/c(=N\c2ccc(Oc3cccc(F)n3)cc2)n(Cc2ccc(C)cc2)c1=O [Compound I-104]	5
Cc1ccc(Cn2c(=O)n([C@@H](C)[C@@H](C)C(=O)O)c(=O)[nH]/c2=N\c2ccc(Oc3ccc(F)cn3)cc2)cc1 [Compound I-105]	7
Cc1ccc(Cn2c(=O)n([C@@H](C)[C@@H](C)C(=O)O)c(=O)[nH]/c2=N\c2ccc(Oc3cccc(F)n3)cc2)cc1 [Compound I-106]	6
COC(=O)[C@H](C)[C@H](C)n1c(=O)[nH]/c(=N\c2ccc(Oc3cc(C)ccn3)cc2)n(Cc2ccc(Cl)cc2)c1=O [Compound I-107]	31
COC(=O)[C@@H](C)Cn1c(=O)[nH]/c(=N\c2ccc(Oc3ccc(C)cn3)cc2)n(Cc2ccc(C)cc2)c1=O [Compound I-108]	4
COC(=O)[C@H](C)[C@H](C)n1c(=O)[nH]/c(=N\c2ccc(Oc3ccc(C)cn3)cc2)n(Cc2ccc(C)cc2)c1=O [Compound I-109]	6
COC(=O)C(C)(C)Cn1c(=O)[nH]/c(=N\c2ccc(Oc3ccc(C)cn3)cc2)n(Cc2ccc(C)cc2)c1=O [Compound I-110]	4
Cc1ccnc(Oc2ccc(/N=c3\[nH]c(=O)n([C@@H](C)[C@@H](C)C(=O)O)c(=O)n3Cc3ccc(Cl)cc3)cc2)c1 [Compound I-111]	9
Cc1ccc(Cn2c(=O)n(C[C@H](C)C(=O)O)c(=O)[nH]/c2=N\c2ccc(Oc3ccc(C)cn3)cc2)cc1 [Compound I-112]	4
Cc1ccc(Cn2c(=O)n([C@@H](C)[C@@H](C)C(=O)O)c(=O)[nH]/c2=N\c2ccc(Oc3ccc(C)cn3)cc2)cc1 [Compound I-113]	5
Cc1ccc(Cn2c(=O)n(CC(C)(C)C(=O)O)c(=O)[nH]/c2=N\c2ccc(Oc3ccc(C)cn3)cc2)cc1 [Compound I-114]	6
COC(=O)[C@@H](C)Cn1c(=O)[nH]/c(=N\c2ccc(Oc3cccc(Cl)n3)cc2)n(Cc2ccc(C)cc2)c1=O [Compound I-115]	6
COC(=O)C(C)(C)Cn1c(=O)[nH]/c(=N\c2ccc(Oc3cccc(Cl)n3)cc2)n(Cc2ccc(C)cc2)c1=O [Compound I-116]	7
Cc1ccc(Cn2c(=O)n(C[C@H](C)C(=O)O)c(=O)[nH]/c2=N\c2ccc(Oc3ncccc3Cl)cc2)cc1 [Compound I-117]	5
